For this assay, the target named is T1, RUMGNA_02695 (RgNanOx, oxidoreductase) (Mediterraneibacter gnavus, UniProt A7B558).
T1 construct: the full length RgNanA and full length RUMGNA_02695 were amplified from R. gnavus ATCC 29149 gDNA; His6 (pHISTEV vector) (N); made in house; host or cells: E. coli BL21
The experiment in a line: RUMGNA_02695 enzymatic activity assay. It is filed as biochemical, R. gnavus ATCC 29149. Here is the method: To assay RUMGNA_02695 activity against 2,7-anhydro-Neu5Ac, the purified recombinant protein was incubated in 100 μl reactions at 37° C. overnight with 1 mM 2,7-anhydro-Neu5Ac, 50 mM sodium phosphate buffer pH 7.0 and 500 μM NADH, NAD, FAD or no cofactor. The reactions were dried using a Concentrator Plus (Eppendorf) for 1 h. Samples were then resuspended in 50 μl of water and 50 μl of reaction buffer (1.74 mg of 1,2-Diamino-4,5-methylenedioxybenzene dihydrochloride (Carbosynth, UK), 324.6 μl MilliQ water, 88.6 μl glacial acetic acid, 58.2 μl of β-Mercaptoethanol and 79.3 μl of sodium hydrosulphite) and incubated for 2 h at 55° C. in the dark. The samples were then centrifuged for 1 min and filtered using a 0.45 μm filter into a glass HPLC vial and directly analysed by HPLC.
DMB-labelled samples were analysed by injecting 10 μl onto a Luna 5 μm C-18(2) LC column 250×4.6 mm (Phenomenex) at 1 ml/min. Mobile phases methanol/acetonitrile/water were used for separation of fluorescently labelled sialic acids. The settings of the fluorescence detector were 373 nm excitation and 448 nm emission. Samples were run alongside a Neu5Ac standard.
To determine the kinetic parameters of RUMGNA_02695 enzymatic reaction, a coupled reaction with lactate dehydrogenase and sialic acid aldolase was carried out as described above but with 15 μg of RgNanA and 10 μg RUMGNA_02695 in each reaction. For the kinetics assays, 1, 0.4, 0.2, 0.1, 0.04, 0.02 and 0.01 mM 2,7-anhydro-Neu5Ac was used and the initial rate of reaction determined for each concentration in triplicate before analysis was performed by fitting the data to a Michaelis-Menten using Graph Pad Prism (V 5.03).
Electrospray ionisation spray mass spectrometry (ESI-MS) analysis was performed using the Applied Biosystems 4000 Q-TRAP. The full 100 μl reaction was diluted with 500 ul of 50% Acetonitrile and 0.1% formic acid and samples analysed in negative ion mode using direct injection.

The mark [1] stands for this setting: coupled reaction with excess aldolase and lactate dehydrogenase.

T1 sequence (A7B558 whole entry): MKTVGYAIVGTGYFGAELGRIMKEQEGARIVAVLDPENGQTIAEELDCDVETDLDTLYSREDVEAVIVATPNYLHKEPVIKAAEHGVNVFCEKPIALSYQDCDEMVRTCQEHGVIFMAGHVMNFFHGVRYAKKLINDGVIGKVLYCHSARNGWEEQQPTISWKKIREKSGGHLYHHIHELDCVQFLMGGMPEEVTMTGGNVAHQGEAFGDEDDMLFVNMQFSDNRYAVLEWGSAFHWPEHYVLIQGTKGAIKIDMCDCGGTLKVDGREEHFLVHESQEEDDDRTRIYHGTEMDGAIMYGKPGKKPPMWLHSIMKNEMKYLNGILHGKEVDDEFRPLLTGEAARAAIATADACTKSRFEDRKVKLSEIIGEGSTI

A word on the Km: it is the substrate concentration at which the rate is half of its maximum. A word on the kcat: it is the maximal rate divided by the concentration of active sites. Take `CC(=O)N[C@H]1C2OC(C(=O)O)(C[C@@H]1O)O[C@@H]2[C@H](O)CO` (stereo partly drawn) [2,7-anhydro-Neu5Ac]: the “reaction product by HPLC after DMB labelling” value (1 mM substrate, in the presence of NAD+ or NADH, not with FAD or without cofactor) was “Neu5Ac was observed as a reaction product”. Under setting [1], the Km was 74 ± 14 µM and the kcat is 0.0824 ± 0.0043 s⁻¹.

For the origin of these results see US20210254138A1, “SIALIC ACID TRANSPORTER PROTEINS AS BIOMARKERS AND DRUG TARGETS” (Quadram Institute Bioscience, priority 2018, published 2021).
